# In patent publication US20120172302A1, “COMPOSITION FOR THE TREATMENT OF BENIGN PROSTATE HYPERPLASIA” (priority 2009, published 2012):
# Square brackets hold non-standard residues; d marks the D form. Peptide text beside a SMILES is read from it. * marks the point of attachment. dPhe(4-NHCONH2) = NC(=O)Nc1ccc(C[C@@H](N)C(=O)O)cc1; Dihydroorotyl(S) = O=C1C[C@@H](C(=O)*)NC(=O)N1; dPhe(4-Cl) = N[C@H](Cc1ccc(Cl)cc1)C(=O)O; Phe(4-NH2) = Nc1ccc(C[C@H](N)C(=O)O)cc1; d2Nal = N[C@H](Cc1ccc2ccccc2c1)C(=O)O; Lys(iPr) = CC(C)NCCCC[C@H](N)C(=O)O; d3Pal = N[C@H](Cc1cccnc1)C(=O)O
# Assays:
# Assay type in all cases: in vivo, men
# [1] = tested on: patients with BPH; test: International Prostate Symptom Score (IPSS) questionnaire, clinical trial in BPH patients; settings: for Improvements in mean sum of IPSS scores: 9 and 12 months follow-up
# Method: (§1) For each patient, the following parameters were measured or assessed (using the methods discussed below), at time points of screening (e.g. −7 days) day 0 (“baseline”), day 14, day 28 and day 42:
# (§2) After the initial 6-week treatment period of the exploratory study had been completed, a 12-month follow-up period looking at long-term efficacy commenced. Interim data of the main efficacy variables (IPSS, IPSS Global QoL, prostate volume, urinary flow, and post-void residual volume—measured as set out below) after 6 months' follow-up are also presented herein Table 1, 2, 3 FIG. 1b), together with some IPSS data at 9 and 12 months (FIG. 1b).
# The IPSS was developed in 1991 by the American Urological Association to assess the severity of urinary symptoms related to BPH (Barry, M. J., et al., The American Urological Association symptom index for benign prostatic hyperplasia. The Measurement Committee of the American Urological Association. J Urol, 1992. 148(5): p. 1549-57; discussion 1564). It has been widely used in clinical studies, has undergone extensive validation and its psychometric properties are well documented in both the original version (containing a 1-month recall) as well as the ‘acute’ version used in this study (containing a one-week recall). The WHO has recommended the use of this instrument for the evaluation of BPH and it is considered to be the internationally accepted, standard questionnaire for assessing lower urinary tract symptoms.
# The patients were asked to complete the IPSS questionnaire to evaluate their urinary symptoms. The IPSS is a patient-administered questionnaire containing seven items to evaluate symptoms of urinary obstruction (incomplete emptying, frequency, hesitancy, urgency, weak stream, straining, nocturia) over the preceding week. Each urinary symptom question is assigned points from 0 to 5 indicating increasing severity of the particular symptom. The total score can therefore range from 0 to 35 (0-7: mildly symptomatic; 8-19: moderately symptomatic; 20-35: severely symptomatic). A reduction in score over the treatment is indicative of improvement.
# [2] = tested on: patients with BPH; test: IPSS global quality of life (QoL) question, clinical trial; settings: for Percentage of patients feeling delighted, pleased, or mostly satisfied (IPSS Global QoL scores 0-2) / Percentage of patients feeling unhappy or terrible (IPSS Global QoL scores 5 and 6): combined group
# Method: as §1, §2
# Included in the IPSS is one item to evaluate QoL (IPSS-global QoL). The Global QoL Question was developed alongside the IPSS and was officially included as part of the IPSS in 1993 when the WHO formally recommended the IPSS for both symptom and QoL assessment. […] This question assesses the degree to which patients find their symptoms bothersome. Patients are asked about how they would feel if they were to spend the rest of their lives with their prostate symptoms just as they are now. The choices for answering this quality of life question ranged from “delighted” (rating=0) to “terrible” (rating=6).
# [3] = tested on: patients with BPH; test: Post-void residual volume by transabdominal ultrasound, clinical trial; settings: for Mean post-void residual volume: all treatment groups
# Method: 2] Efficacy Endpoints—the measured Peak Urinary Flow, Post-void Residual Volume, and Prostate Volume.
# The Post-void Residual Volume (PVR) was evaluated by transabdominal ultrasound. The urine bladder was sonicated from two directions perpendicular to one another resulting in three cursor positions set by the urologist. The volume was calculated automatically. The investigations were performed by urologists by methods known in the art.
# [4] = Day 42, all treatment groups combined
# [5] = Month 6 follow up, 32 mg group, n=7
# [6] = Month 6 follow up, 64 mg group, n=4
# [7] = Month 6 follow up, 16+16 mg group, n=6
# [8] = Month 6 follow up, 32+32 mg group, n=7
# [9] = baseline, all treatment groups combined
# [10] = Month 6 follow-up, 32 mg group, n=7
# [11] = Month 6 follow-up, 64 mg group, n=4
# [12] = Month 6 follow-up, 16+16 mg group, n=6
# [13] = Month 6 follow-up, 32+32 mg group, n=7
structure (smiles),measurement,setting,value
"CC(=O)N[C@H](Cc1ccc2ccccc2c1)C(=O)N[C@H](Cc1ccc(Cl)cc1)C(=O)N[C@H](Cc1cccnc1)C(=O)N[C@@H](CO)C(=O)N[C@@H](Cc1ccc(NC(=O)[C@@H]2CC(=O)NC(=O)N2)cc1)C(=O)N[C@H](Cc1ccc(NC(N)=O)cc1)C(=O)N[C@@H](CC(C)C)C(=O)N[C@@H](CCCCNC(C)C)C(=O)N1CCC[C@H]1C(=O)N[C@H](C)C(N)=O [Degarelix, D-Alaninamide, N-acetyl-3-(2-naphthalenyl)-D-alanyl-4-chloro-D-phenylalanyl-3-(3-pyridinyl)-D-alanyl-L-seryl-4-[[[(4S)-hexahydro-2,6-dioxo-4-pyrimidinyl]carbonyl]amino]-L-phenylalanyl-4-[(aminocarbonyl)amino]-D-phenylalanyl-L leucyl-N6-(1-methylethyl)-L-lysyl-L-prolyl] (Ac-[d2Nal][dPhe(4-Cl)][d3Pal]S[Phe(4-NH2)](Dihydroorotyl(S))[dPhe(4-NHCONH2)]L[Lys(iPr)]P[dA]-NH2)","IPSS Q1 (incomplete emptying), Q2 (frequency), Q4 (urgency) score, change from baseline","[1]; 32 mg dose, 28 and 42 day timepoints (FIG. 1c)",pronounced effect
same,Improvements in mean sum of IPSS scores,[1]; 32 mg group (FIG. 1b),still indicated
same,Improvements in mean sum of IPSS scores,[1]; 32+32 mg group (FIG. 1b),still indicated
same,Mean IPSS score,"[1]; Baseline of 6 month follow up patients, 32 mg group, n=7",22.0 (n = 7)
same,Mean IPSS score,"[1]; Baseline of 6 month follow up patients, 64 mg group, n=4",20.0 (n = 4)
same,Mean IPSS score,"[1]; Baseline of 6 month follow up patients, 16+16 mg group, n=6",18.8 (n = 6)
same,Mean IPSS score,"[1]; Baseline of 6 month follow up patients, 32+32 mg group, n=7",19.3 (n = 7)
same,Mean IPSS score,"[1]; Baseline, 32 mg group (one s.c. injection Day 0), N=12",22.3 (6.5)
same,Mean IPSS score,"[1]; Baseline, 64 mg group (one s.c. injection Day 0), N=13",21.8 (6.2)
same,Mean IPSS score,"[1]; Baseline, 16+16 mg group (16 mg s.c. Day 0 and Day 14), N=13",17.7 (4.5)
same,Mean IPSS score,"[1]; Baseline, 32+32 mg group (32 mg s.c. Day 0 and Day 14), N=12",18.2 (5.4)
same,IPSS mean change from baseline,"[1]; Day 14, 32 mg group",−7.8 (8.7)
same,IPSS mean change from baseline,"[1]; Day 14, 64 mg group",−8.0 (4.0)
same,IPSS mean change from baseline,"[1]; Day 14, 16+16 mg group",−3.2 (5.4)
same,IPSS mean change from baseline,"[1]; Day 14, 32+32 mg group",−5.5 (5.0)
same,IPSS mean change from baseline,"[1]; Day 42, 32 mg group",−13.2 (6.6)
same,Mean IPSS score,"[1]; Day 42, 32 mg group",9.1 (6.2)
same,"Number of patients in IPSS category ""severe""","[1]; Day 42, 32 mg group",1 patients
same,Percentage responders (decrease in IPSS of at least 30% vs baseline),"[1]; Day 42, 32 mg group",92%
same,IPSS mean change from baseline,"[1]; Day 42, 64 mg group",−10.0 (5.0)
same,Mean IPSS score,"[1]; Day 42, 64 mg group",11.8 (5.9)
same,"Number of patients in IPSS category ""severe""","[1]; Day 42, 64 mg group",1 patients
same,Percentage responders (decrease in IPSS of at least 30% vs baseline),"[1]; Day 42, 64 mg group",85%
same,IPSS mean change from baseline,"[1]; Day 42, 64 mg group, listed as degarelix",−10.0 (SD=5.0)
same,IPSS mean change from baseline,"[1]; Day 42, 16+16 mg group",−6.1 (4.6)
same,Mean IPSS score,"[1]; Day 42, 16+16 mg group",11.6 (4.5)
same,Percentage responders (decrease in IPSS of at least 30% vs baseline),"[1]; Day 42, 16+16 mg group",54%
same,IPSS mean change from baseline,"[1]; Day 42, 16+16 mg group, listed as degarelix",−6.1 (SD=4.6)
same,IPSS mean change from baseline,"[1]; Day 42, 32+32 mg group",−9.6 (4.7)
same,Mean IPSS score,"[1]; Day 42, 32+32 mg group",8.6 (5.7)
same,Percentage responders (decrease in IPSS of at least 30% vs baseline),"[1]; Day 42, 32+32 mg group",83%
same,IPSS mean change from baseline,"[1]; Day 42, 32+32 mg group, listed as degarelix",−9.6 (SD=4.7)
same,"Number of patients in IPSS category ""mild""",[1]; [4],17 patients
same,"Number of patients in IPSS category ""moderate""",[1]; [4],31 patients
same,"Number of patients in IPSS category ""severe""",[1]; [4],2 patients
same,IPSS mean change from baseline,[1]; [5],−11.6 (8.3)
same,Mean IPSS score,[1]; [5],10.4 (6.3)
same,Percentage responders (decrease in IPSS of at least 30% vs baseline),[1]; [5],86%
same,IPSS mean change from baseline,[1]; [6],−4.0 (3.6)
same,Mean IPSS score,[1]; [6],16.0 (8.7)
same,Percentage responders (decrease in IPSS of at least 30% vs baseline),[1]; [6],5%
same,IPSS mean change from baseline,[1]; [7],−2.5 (4.3)
same,Mean IPSS score,[1]; [7],16.3 (4.7)
same,Percentage responders (decrease in IPSS of at least 30% vs baseline),[1]; [7],33%
same,IPSS mean change from baseline,[1]; [8],−12.6 (9.6)
same,Mean IPSS score,[1]; [8],6.7 (4.5)
same,Percentage responders (decrease in IPSS of at least 30% vs baseline),[1]; [8],86%
same,"Number of patients in IPSS category ""moderate""",[1]; [9],27 patients
same,"Number of patients in IPSS category ""severe""",[1]; [9],23 patients
same,Mean IPSS global QoL score,"[2]; Baseline of 6-month follow-up patients, 32 mg group, n=7",2.8 (n = 7)
same,Mean IPSS global QoL score,"[2]; Baseline of 6-month follow-up patients, 64 mg group, n=4",4.6 (n = 4)
same,Mean IPSS global QoL score,"[2]; Baseline of 6-month follow-up patients, 16+16 mg group, n=6",4.5 (n = 6)
same,Mean IPSS global QoL score,"[2]; Baseline of 6-month follow-up patients, 32+32 mg group, n=7",4.3 (n = 7)
same,Mean IPSS global QoL score,"[2]; Baseline, 32 mg group, N=12",3.8 (1.7)
same,Mean IPSS global QoL score,"[2]; Baseline, 64 mg group, N=13",4.7 (1.4)
same,Mean IPSS global QoL score,"[2]; Baseline, 16+16 mg group, N=13",4.2 (1.1)
same,Mean IPSS global QoL score,"[2]; Baseline, 32+32 mg group, N=12",4.3 (1.3)
same,IPSS global QoL mean change from baseline,"[2]; Day 42, 32 mg group",−2.1 (3.0)
same,Mean IPSS global QoL score,"[2]; Day 42, 32 mg group",1.8 (2.0)
same,IPSS global QoL mean change from baseline,"[2]; Day 42, 64 mg group",−2.2 (1.6)
same,Mean IPSS global QoL score,"[2]; Day 42, 64 mg group",2.5 (1.3)
same,IPSS global QoL mean change from baseline,"[2]; Day 42, 16+16 mg group",−1.2 (1.4)
same,Mean IPSS global QoL score,"[2]; Day 42, 16+16 mg group",2.9 (1.4)
same,IPSS global QoL mean change from baseline,"[2]; Day 42, 32+32 mg group",−2.4 (1.9)
same,Mean IPSS global QoL score,"[2]; Day 42, 32+32 mg group",1.9 (1.6)
same,"Percentage of patients feeling delighted, pleased, or mostly satisfied (IPSS Global QoL scores 0-2)",[2]; Day 42,58%
same,Percentage of patients feeling unhappy or terrible (IPSS Global QoL scores 5 and 6),[2]; Day 42,12%
same,IPSS global QoL change from baseline,[2]; [10],−1.4 (1.1)
same,Mean IPSS global QoL score,[2]; [10],1.4 (1.5)
same,IPSS global QoL change from baseline,[2]; [11],−0.8 (1.7)
same,Mean IPSS global QoL score,[2]; [11],3.8 (1.3)
same,IPSS global QoL change from baseline,[2]; [12],−0.3 (0.5)
same,Mean IPSS global QoL score,[2]; [12],4.2 (1.5)
same,IPSS global QoL change from baseline,[2]; [13],−2.7 (2.1)
same,Mean IPSS global QoL score,[2]; [13],1.6 (0.8)
same,"Percentage of patients feeling delighted, pleased, or mostly satisfied (IPSS Global QoL scores 0-2)",[2]; baseline,8%
same,Percentage of patients feeling unhappy or terrible (IPSS Global QoL scores 5 and 6),[2]; baseline,48%
same,Mean post-void residual volume,[3]; Day 14,decreased
same,Number of patients with post-void residual volume decreased vs baseline,"[3]; Day 42, all groups",33 patients
same,Number of patients with post-void residual volume increased vs baseline,"[3]; Day 42, all groups",17 patients
same,Mean post-void residual volume,[3]; Day 42,lower than the baseline value
